We go through 2 compounds from article PMC12164071, “Lysine targeting covalent inhibitors of malarial kinase PfCLK3” (RSC Medicinal Chemistry, 2025).

In assay [1] the test system is PfCLK3. The experiment in a line: Tryptic digest and tandem mass spectrometry of PfCLK3 adducts. It counts as binding, Plasmodium falciparum. The settings on record: PfCLK3 pretreated with compound, trypsin digest, tandem MS. The source says:
PfCLK3 pretreated with either compound 4 or 9 was then digested with trypsin, and the resulting tryptic peptides analysed by tandem mass spectrometry (Fig. 4d and e). This subset of compounds sampled azaindole regioisomers as well as both aldehyde warheads used. […] However, possible modification of a peptide containing Lys494 and Lys503 was also observed. This is a curious result, as a secondary adduct was not observed in the intact spectrum. Lys503 is distal from the ATP binding site, whereas Lys494 lies at its entrance. Adduct formation may be occurring with Lys494 as 4 approaches the binding-site.
This is consistent with the intact mass spectrum, which detected a doubly modified species in ∼20% abundance versus the singly modified protein. […]
For intact protein mass spectrometry, compounds were incubated with a 5-fold excess of compound in buffer containing 20 mM HEPES pH 7.4, 150 mM NaCl, 1 mM TCEP, and 1 mM MgCl 2. […] Samples were incubated at room temperature for 4 hours before 10 μL alliquots were analysed by LC-MS. […]
The resulting peptide mixture was analyzed by high resolution nESI FT-ICR MS using a 12 Telsa Solarix 2XR mass spectrometer (Bruker Daltonics) equipped with a nanomate infusion robot (Advion Biosciences). […]

For assay [2], the target named is human (h)CLK2 (Homo sapiens, UniProt P49760). As to the kind of experiment: Selectivity kinase assay against hCLK2. The settings on record: for IC50: errors SD, N ≥ 3. It counts as biochemical. The source says:
Given this work aims to target a conserved residue, selectivity must be derived from the reversible ligand rather than the covalent interaction.

Assay [3] deals with 3D7 Plasmodium falciparum parasites. The experiment in a line: Ex vivo P. falciparum (3D7) inhibition assay. It counts as cell-based. The settings on record: 3D7, Pf3D7 parasites, 72 hours, errors SD. How it is done: Compounds 4, 5, 8 and 9 were then assessed against 3D7 Plasmodium falciparum parasites (Fig. 6). […]
P. falciparum (3D7) culture and synchronisation.
P. falciparum cultures were maintained in RPMI-1640 media (Invitrogen) supplemented with 0.2% sodium bicarbonate, 0.5% Albumax II, 2.0 mM L-glutamine (Sigma) and 10 mg/L gentamycin. For continuous culture, the parasites were maintained at 4% haematocrit in human erythrocytes from 0+ blood donors and between 0.5 - 3% parasitaemia in an incubator at 37 °C, 5% carbon dioxide (CO 2), 5% oxygen (O 2) and 90% nitrogen (N 2). To obtain highly synchronous ring stage parasites for assays, cultures were double synchronised using Percoll and Sorbitol synchronisation. First, highly segmented schizonts were enriched by centrifugation on a 70% Percoll (GE Healthcare) cushion gradient. The Schizont pellet was collected and washed twice before fresh erythrocytes were added to a final haematocrit of 4%, and incubated for about 1-2 hours shaking continuously to allow merozoites egress and re-invasion of new erythrocytes. Residual schizonts were then removed by a second Percoll purification followed by treating the ring pellet with sorbitol to generate highly synchronous 1-2 hours old ring-stage parasites.
Ex vivo P. Falciparum (3D7) inhibition assay.
To determine the IC 50 of the molecules in parasites (P. falciparum 3D7) ex vivo, the molecules were diluted 1 in 3 from a starting concentration of 100 μM for 12 dilution points in triplicate. 50 μL of freshly diluted drugs, at twice the required final concentrations were aliquoted into black 96-well plates. To the compound plates, 50 μL of parasites prepared at 8% haematocrit at a parasitaemia (0.3 - 0.5%) were added and mixed by pipetting up and down several times giving a final culture volume of 100 μL at the required compound concentration (top concentration of 100 μM) and 4% haematocrit. To the ‘no compound’ control, growth media was added and uninfected erythrocytes were included on the plate as blank. The outer wells were filled with media to reduce evaporation from the experimental wells and the plates incubated for 72 hours (±2 hours) to allow the parasites sufficient time to re-invade before they are collected and frozen. For cellular washout studies, compound media was exchanged for compound-free media after 6 hours, and the parasites incubated for a […]

Setting [4] is: N ≥ 3, read-out: pEC50 (3D7) (converted).

Like-named read-outs stand apart in the source and are kept apart here.

Chain of human (h)CLK2 (P49760 whole entry): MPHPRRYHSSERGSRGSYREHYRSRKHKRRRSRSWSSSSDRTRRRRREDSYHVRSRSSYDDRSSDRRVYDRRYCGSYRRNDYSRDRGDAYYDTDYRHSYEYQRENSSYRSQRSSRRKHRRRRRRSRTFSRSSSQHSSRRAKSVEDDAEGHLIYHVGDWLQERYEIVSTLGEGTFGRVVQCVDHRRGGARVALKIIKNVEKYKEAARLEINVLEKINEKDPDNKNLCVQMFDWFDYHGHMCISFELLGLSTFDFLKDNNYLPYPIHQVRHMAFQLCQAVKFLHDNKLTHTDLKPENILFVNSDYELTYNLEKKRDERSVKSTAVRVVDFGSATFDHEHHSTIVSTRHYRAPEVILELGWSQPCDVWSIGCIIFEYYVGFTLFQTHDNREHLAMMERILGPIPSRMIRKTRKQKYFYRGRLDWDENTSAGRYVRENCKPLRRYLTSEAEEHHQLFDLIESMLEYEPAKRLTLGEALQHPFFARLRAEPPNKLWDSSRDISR

As to `CCN(CC)Cc1ccc(OC)c(-c2cc3c(-c4ccc(O)c(C=O)c4)ccnc3[nH]2)c1` [Compound 4], the site of modification entry in assay [1] is “Lys394 was the predominant site of modification”. In assay [2] (read-out: IC50 (hCLK2)), the IC50 was determined as 0.104 ± 0.037 µM. Moreover, the EC50 in assay [3] (N ≥ 3, read-out: EC50 (3D7)) was 6.35 ± 2.31 µM; in assay [3] (setting [4]), 6.31 µM.

In the case of `C#Cc1ccc(-c2c[nH]c3ncc(-c4cc(CN(CC)CC)ccc4OC)cc23)cc1C=O` [Compound 9], the site of modification entry in assay [1] was “pyridinium modification was observed in peptides containing both the target Lys394, and Lys373”. Besides, in assay [2] (read-out: pIC50 (hCLK2) (converted)), the IC50 is 0.0166 µM. For the same compound, the “fold more potent against hCLK2 than parent S1” value in assay [2] (relative to S1) amounted to 31 fold. Besides, the EC50 in assay [3] (N ≥ 3, read-out: EC50 (3D7)) is 4.35 ± 0.5 µM; in assay [3] (setting [4]), 4.37 µM.
